Laboratory results taken from US6335443B1, “Chemical synthesis of exochelins” (Keystone Biomedical, Inc., priority 1998, dated 2002).
“And” between values parts separate entries of the source, which are not always exact repeats. Equal values may be shown once.

Test system: ferri-Exochelin 758SM
Assay: Capacity to remove iron from a different Exochelin species (Ferri-Exochelin 758SM)
Format: binding
Settings: for % of Calculated Iron-Saturation at Equilibrium 0 h / % of Calculated Iron-Saturation at Equilibrium 1 h / % of Calculated Iron-Saturation at Equilibrium 0 hour / % of Calculated Iron-Saturation at Equilibrium 1 hour: assuming comparable affinities for iron; for % of Calculated Iron-Saturation at Equilibrium 0 hour / % Iron-Saturation 0 hour / % of Calculated Iron-Saturation at Equilibrium 1 hour / % Iron-Saturation 1 hour: Table 2; for affinity for iron (in words): removal of iron from ferri-Exochelin 758SM within 1 h
Method: C. Capacity to Remove Iron from a Different Exochelin Species. To assess the affinity of the synthetic desferri-Exochelin 772SM(R) for iron, its capacity to remove iron from a different Exochelin species, ferri-Exochelin 758SM, was evaluated. The capacity of synthetic and native desferri-Exochelin 772SM(R) to remove iron from ferri-Exochelin 758SM was also evaluated and compared. Either native or synthetic desferri-Exochelin 772SM(R) were independently mixed with ferri-Exochelin 758SM. The amount of iron acquired in 1 hour by the desferri-Exochelins was assayed by subjecting the Exochelin to reverse-phase HPLC on a phenyl column, as described above, and the area under the 450 nm absorbance peak was measured. The amount of iron-Exochelin was then calculated using a conversion factor derived from assaying known amounts of ferri-Exochelin 772SM(R).
C. Capacity to Remove Iron from a Different Exochelin Species. To assess the affinity of the synthetic desferri-Exochelin 772SM(S) for iron, its capacity to remove iron from a different exochelin species, ferri-Exochelin 758SM was evaluated. The capacity of synthetic desferri-Exochelin 772SM(S) and native desferri-Exochelin 772SM(R) to remove iron from ferri-Exochelin 758SM was also evaluated and compared. Either synthetic desferri-Exochelin 772SM(S) or native desferri-Exochelin 772SM(R) was mixed with ferri-Exochelin 758SM. The amount of iron acquired by the desferri-exochelins after 1 hour was assayed by subjecting the molecule to reverse-phase HPLC on a phenyl column, as described above, and the area under the 450 nm absorbance peak was measured. The amount of iron-exochelin was then calculated using a conversion factor derived from assaying known amounts of ferri-Exochelin 772SM(R) and ferri-Exochelin 772SM(S).

[1] = mixed with ferri-Exochelin 758SM

`COC(=O)CCCCCC(=O)N(O)CCCCC(NC(=O)C1COC(c2ccccc2O)=N1)C(=O)OC(C)CC(=O)NC1CCCCN(O)C1=O` [Synthetic 772SM(R), Exochelin 772SM(R)] was tested, and the “% of Calculated Iron-Saturation at Equilibrium 0 h” value (Table 1, 0 h, 17.3 µg 772SM(R), Experiment II) was 2.0%, the “% of Calculated Iron-Saturation at Equilibrium 0 h” value (Table 1, 0 h, 26.1 µg 772SM(R), Experiment I) was 2.7% and the “% Iron-Saturation 0 h” value (Table 1, 0 h, mixed with ferri-Exochelin 758SM) was 1.1%. The “% of Calculated Iron-Saturation at Equilibrium 1 h” value (Table 1, 17.3 µg 772SM(R), Experiment II) was 90.2%, the “% of Calculated Iron-Saturation at Equilibrium 1 h” value (Table 1, 26.1 µg 772SM(R), Experiment I) was 81.3% and the “% of Calculated Iron-Saturation at Equilibrium 1 h” value (Table 1, listed as synthetic Exochelin 772SM(R)) was 81.3% and 90.2%. For the same molecule, the “% Iron-Saturation 1 h” value (Table 1, mixed with ferri-Exochelin 758SM, 17.3 µg 772SM(R), Experiment II) was 48.6%, the “% Iron-Saturation 1 h” value (Table 1, mixed with ferri-Exochelin 758SM, 26.1 µg 772SM(R), Experiment I) was 33.5% and the “% Iron-Saturation 1 h” value (Table 1, mixed with ferri-Exochelin 758SM, listed as synthetic Exochelin 772SM(R)) was 33.5% and 48.6%. For the same molecule, the “% of Calculated Iron-Saturation at Equilibrium 0 hour” value was 2.3%, the “% Iron-Saturation 0 hour” value [1] was 1.1% and the “% of Calculated Iron-Saturation at Equilibrium 1 hour” value was 90.7%. For the same molecule, the “% of Calculated Iron-Saturation at Equilibrium 1 hour” value (listed as synthetic Exochelin 772SM(R)) was 90.7%, the “% Iron-Saturation 1 hour” value [1] was 42.9% and the “% Iron-Saturation 1 hour” value (mixed with ferri-Exochelin 758SM, listed as synthetic Exochelin 772SM(R)) was 42.9%. The “affinity for iron (in words)” value was “very high affinity for iron”.

For `COC(=O)CCCCCC(=O)N(O)CCCCC(NC(=O)C1COC(c2ccccc2O)=N1)C(=O)OC(C)CC(=O)NC1CCCCN(O)C1=O` [Synthetic 772SM(S), Exochelin 772SM(S)], the “% of Calculated Iron-Saturation at Equilibrium 0 hour” value was 2.3%, the “% Iron-Saturation 0 hour” value [1] was 1.0% and the “% of Calculated Iron-Saturation at Equilibrium 1 hour” value was 89.6%. For the same molecule, the “% of Calculated Iron-Saturation at Equilibrium 1 hour” value (listed as synthetic Exochelin 772SM(S)) was 89.6%, the “% Iron-Saturation 1 hour” value [1] was 39.7% and the “% Iron-Saturation 1 hour” value (mixed with ferri-Exochelin 758SM, listed as synthetic Exochelin 772SM(S)) was 39.7%. For the same molecule, the “affinity for iron (in words)” value was “very high affinity for iron”.
